From PubChem BioAssay (NCI) come the findings set out here.

Several values for one entry are separate records, joined by “and”; a condition that tells them apart may be missing. Identical values can stand only once.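 Following 48 hours of exposure in 96-well plates, responses at five concentrations were used to interpolate endpoints linearly. Here, GI50 denotes the concentration required for 50% inhibition of growth. TGI is the concentration that stops growth completely.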

Test systems include HCT-15 colon; SNB-19 CNS; HOP-92 NSCLC; HCT-116 colon; BT-549 breast; SNB-75 CNS; TK-10 renal; UACC-257 melanoma; COLO 205 colon; SK-MEL-2 melanoma.
Assay in all cases: growth of human tumour cells (NCI), 48 h

For `Nc1ccc(/C=C/C(=O)NCc2cc3cc(-c4ccc(C(=O)N5CCC(F)(F)CC5)cc4)cc(-c4ccc(F)cc4)c3o2)cn1`, the GI50 in the assay with HCT-15 colon was 0.679 µM; in the assay with SNB-19 CNS, 3.96 µM; in the assay with HOP-92 NSCLC, 28.3 µM; with HCT-116 colon it was 0.0491 µM; with BT-549 breast it was 5.95 µM; in the assay with SNB-75 CNS, above 100 µM. Besides, the GI50 in the assay with TK-10 renal is above 100 µM; with UACC-257 melanoma, above 100 µM; with COLO 205 colon it was 0.327 µM; with SK-MEL-2 melanoma it was above 100 µM. Moreover, the TGI in the assay with HCT-15 colon, in the assay on SNB-19 CNS, with HOP-92 NSCLC, with HCT-116 colon, with BT-549 breast and in the assay with SNB-75 CNS was above 100 µM each time. For the same compound, the TGI in the assay on TK-10 renal is above 100 µM; with UACC-257 melanoma it was above 100 µM; in the assay on COLO 205 colon, above 62.9 µM; in the assay with SK-MEL-2 melanoma it was above 100 µM.
For the compound `CC(=O)/C(=C/c1ccccc1F)C(=O)c1ccccc1`, the TGI with HCT-15 colon, in the assay with SNB-19 CNS, with HOP-92 NSCLC, with HCT-116 colon, in the assay with BT-549 breast and in the assay on SNB-75 CNS was above 100 µM each time. In addition, the TGI was 80.9 µM in the assay on TK-10 renal, 91.3 µM in the assay with UACC-257 melanoma, above 100 µM with COLO 205 colon and 93.8 µM in the assay with SK-MEL-2 melanoma.
On to `O=C(N/N=C/c1ccccc1O)c1ccccc1`, for which the GI50 was 0.893 µM in the assay with HCT-15 colon; 6.22 µM with SNB-19 CNS; 5.84 µM in the assay with HOP-92 NSCLC; 0.309 µM with HCT-116 colon; 3.6 µM in the assay with BT-549 breast; 3.5 µM in the assay on SNB-75 CNS. Also, the GI50 with TK-10 renal is 4.11 µM; in the assay on UACC-257 melanoma, 3.47 µM; in the assay with COLO 205 colon, 0.75 µM; with SK-MEL-2 melanoma, above 100 µM. Also, the TGI in the assay on HCT-15 colon was above 100 µM; with SNB-19 CNS, above 100 µM; in the assay with HOP-92 NSCLC, above 100 µM; with HCT-116 colon it was 5.19 µM; in the assay on BT-549 breast it was above 100 µM; in the assay on SNB-75 CNS, above 100 µM. In addition, the TGI with TK-10 renal is above 100 µM; in the assay with UACC-257 melanoma, 37.1 µM; in the assay on COLO 205 colon, above 100 µM; with SK-MEL-2 melanoma, above 100 µM.
As for `CC(C)(C)c1cc(C=C(C#N)C#N)cc(C(C)(C)C)c1O`, the TGI is 14.1 µM and 19.9 µM in the assay with HCT-15 colon; 115 µM with SNB-19 CNS; 0.768 µM and 0.139 µM in the assay with HOP-92 NSCLC; 1.03 µM and 3.81 µM in the assay with HCT-116 colon; 0.875 µM and 6.78 µM with BT-549 breast; 0.898 µM and 3.27 µM with UACC-257 melanoma. In addition, the values for the TGI in the assay on COLO 205 colon and in the assay on SK-MEL-2 melanoma were 0.369 µM and 1.39 µM, respectively. Also, the GI50 in the assay with SNB-19 CNS is 0.271 µM; in the assay with HOP-92 NSCLC, 0.212 µM; in the assay on BT-549 breast, 0.141 µM; in the assay with SNB-75 CNS it was 0.194 µM; in the assay with TK-10 renal, 0.336 µM; in the assay with COLO 205 colon, 0.363 µM and 0.191 µM.
For the compound `Cc1cc(I)cc(CN(C)CCCN2CCCC2)c1O`, the GI50 with HCT-15 colon is 19.1 µM; with SNB-19 CNS, 27.6 µM; with HOP-92 NSCLC, 15.8 µM; in the assay on HCT-116 colon, 15.5 µM; with BT-549 breast, 13.9 µM; with SNB-75 CNS, 15.3 µM. The GI50 in the assay on TK-10 renal is 17 µM; in the assay on UACC-257 melanoma, 22.7 µM; in the assay on COLO 205 colon, 15.6 µM; in the assay with SK-MEL-2 melanoma, 20.6 µM. The TGI is 47.5 µM in the assay on HCT-15 colon; above 80.4 µM with SNB-19 CNS; 59.1 µM in the assay with HOP-92 NSCLC; 55.6 µM with HCT-116 colon; 31.7 µM in the assay on BT-549 breast; 35.6 µM in the assay on SNB-75 CNS. For the same compound, the TGI in the assay on TK-10 renal is 36 µM; in the assay with UACC-257 melanoma it was above 57 µM; in the assay with COLO 205 colon it was 33.1 µM; in the assay on SK-MEL-2 melanoma, 40.4 µM.
On to `COC(=O)C(/C(=N\O)C(=O)Nc1cccc(Cl)c1C)c1cnc2ccccc2n1` (stereo not drawn), for which the TGI with HCT-15 colon, in the assay on SNB-19 CNS, in the assay on HOP-92 NSCLC, in the assay on HCT-116 colon, in the assay with BT-549 breast and with SNB-75 CNS was above 100 µM each time. For the same compound, the TGI in the assay on TK-10 renal, with UACC-257 melanoma, with COLO 205 colon and with SK-MEL-2 melanoma was above 100 µM throughout.
`Cc1cc(N(CCC#N)CCC#N)ccc1/C=C(\NC(=O)/C=C/c1ccccc1)C(=O)NN`: the TGI with HCT-15 colon is above 100 µM; with SNB-19 CNS, above 55.7 µM; in the assay on HOP-92 NSCLC it was 63.7 µM; in the assay on HCT-116 colon, above 100 µM; with BT-549 breast it was 80.4 µM; with SNB-75 CNS, above 62.9 µM. Further, the TGI was above 76.8 µM with TK-10 renal, above 100 µM in the assay with UACC-257 melanoma, above 100 µM with COLO 205 colon and above 100 µM in the assay on SK-MEL-2 melanoma.
`O=S(=O)(CCCl)c1ccc(Cl)cc1`: the GI50 in the assay with HCT-15 colon was 2.92 µM; in the assay on SNB-19 CNS, 13.2 µM; in the assay on HOP-92 NSCLC, 2.2 µM; in the assay with HCT-116 colon it was 2.74 µM; in the assay with BT-549 breast it was 3.36 µM; in the assay with SNB-75 CNS, 2.4 µM. In addition, the GI50 was 2.32 µM in the assay with TK-10 renal, 2.98 µM in the assay on UACC-257 melanoma, 3.74 µM in the assay on COLO 205 colon and 2.17 µM in the assay with SK-MEL-2 melanoma. Also, the TGI was determined as 12.4 µM in the assay with HCT-15 colon; 41.1 µM in the assay with SNB-19 CNS; 6.57 µM in the assay on HOP-92 NSCLC; 11.9 µM in the assay with HCT-116 colon; 12.6 µM with BT-549 breast; 29.8 µM in the assay with SNB-75 CNS. Besides, the TGI in the assay on TK-10 renal is 6.44 µM; with UACC-257 melanoma, 11.6 µM; with COLO 205 colon, 11.7 µM; in the assay on SK-MEL-2 melanoma it was 5.55 µM.
For the compound `O=C(Nc1ccc(Cl)c(Cl)c1)NS(=O)(=O)c1cnccc1Oc1ccc(F)cc1`, the GI50 in the assay with HCT-15 colon is 3.32 µM; in the assay on SNB-19 CNS, 4.29 µM; in the assay on HOP-92 NSCLC it was 2.77 µM; in the assay with HCT-116 colon it was 3.07 µM; with BT-549 breast it was 6.84 µM; with SNB-75 CNS, 3.85 µM. For the same compound, the GI50 in the assay with TK-10 renal is 3.69 µM; in the assay with UACC-257 melanoma it was 4.72 µM; with COLO 205 colon, 2.97 µM; in the assay with SK-MEL-2 melanoma it was 4.71 µM. Moreover, the TGI in the assay with HCT-15 colon is above 100 µM; in the assay on SNB-19 CNS, above 100 µM; in the assay on HOP-92 NSCLC it was 8.47 µM; with HCT-116 colon, 12.3 µM; in the assay on BT-549 breast, 40.4 µM; with SNB-75 CNS, above 100 µM. Moreover, the TGI is 21.6 µM in the assay with TK-10 renal, 24.4 µM with UACC-257 melanoma, 7.59 µM with COLO 205 colon and above 100 µM in the assay with SK-MEL-2 melanoma.
Turning to `CC(C)(C)OC(=O)NCCCCCCCn1c2c(c3ccccc3c1=O)C(=O)c1ccccc1-2`, the GI50 was 41.7 µM in the assay with HCT-15 colon; 32.5 µM with SNB-19 CNS; 15 µM in the assay on HOP-92 NSCLC; 17.6 µM in the assay on HCT-116 colon; 22.4 µM with BT-549 breast; 21.5 µM with SNB-75 CNS. The GI50 is 38.3 µM in the assay on TK-10 renal, 41.4 µM in the assay with UACC-257 melanoma, 63.7 µM with COLO 205 colon and 36.6 µM with SK-MEL-2 melanoma. Further, the TGI in the assay with HCT-15 colon is above 100 µM; with SNB-19 CNS, above 100 µM; in the assay on HOP-92 NSCLC, 37.1 µM; in the assay on HCT-116 colon it was 66.6 µM; in the assay on BT-549 breast, 46.6 µM; with SNB-75 CNS, 49.7 µM. Further, the TGI in the assay on TK-10 renal, with UACC-257 melanoma, with COLO 205 colon and in the assay on SK-MEL-2 melanoma was above 100 µM in each case.
Regarding `COc1ccc2c(c1)/C(=C/c1cc(OC)c(OC)c(OC)c1)C(=O)N2`, the GI50 in the assay with HCT-15 colon is 0.393 µM; with SNB-19 CNS it was 0.433 µM; in the assay with HOP-92 NSCLC, 1.43 µM; in the assay on HCT-116 colon, 0.0272 µM; in the assay with BT-549 breast it was 1.37 µM; in the assay with SNB-75 CNS, 0.483 µM. Moreover, the GI50 with TK-10 renal is 1.19 µM; in the assay on UACC-257 melanoma, 0.615 µM; with COLO 205 colon, 0.517 µM; with SK-MEL-2 melanoma, 1.18 µM. Besides, the TGI with HCT-15 colon is above 100 µM; in the assay with SNB-19 CNS, above 100 µM; in the assay on HOP-92 NSCLC, above 33.9 µM; in the assay on HCT-116 colon, above 100 µM; in the assay on BT-549 breast, above 100 µM; with SNB-75 CNS, 2.05 µM. The TGI is above 70.6 µM with TK-10 renal, above 100 µM in the assay with UACC-257 melanoma and 3.03 µM in the assay with COLO 205 colon.
On to `c1c[nH]c(CN2CCOCC2)n1`, for which the TGI in the assay on HCT-15 colon, in the assay on SNB-19 CNS, with HOP-92 NSCLC, with HCT-116 colon, with BT-549 breast and in the assay with SNB-75 CNS was above 100 µM in each case. Also, the TGI with TK-10 renal, with UACC-257 melanoma, in the assay on COLO 205 colon and in the assay on SK-MEL-2 melanoma was above 100 µM throughout.
In the case of `O=C(O)[C@H](c1ccccc1)[C@@H](C(=O)O)c1ccccc1`, the TGI with HCT-15 colon, in the assay with SNB-19 CNS, in the assay with HOP-92 NSCLC, with HCT-116 colon, in the assay on BT-549 breast and in the assay with SNB-75 CNS was above 100 µM throughout. Moreover, the TGI with TK-10 renal, with UACC-257 melanoma, in the assay on COLO 205 colon and in the assay on SK-MEL-2 melanoma was above 100 µM each time.
